Patent EP0589484A1, “1,2-Ethanediol derivative and salt thereof, process for producing the same, and cerebral function-improving agent comprising the same” (TOYAMA CHEMICAL CO., LTD., priority 1989, dated 1990)
Structures can show the parent of a compound that is named as a salt.

tested on: ddY female mouse; assay: Effect of test compound on hypoxia (antihypoxic activity); format: in vivo; conditions: po, 100 mg/kg orally, placed in chamber (4% oxygen, 96% nitrogen) after 1 hour from the administration, survival time relative to control, read-out: Antihypoxic activity (%)
Procedure: A test compound dissolved in physiological saline (100 mg/kg) was orally administered to a ddY female mouse (5-6 weeks old, each group consisting of 10 mice). After 1 (or 30 minutes*) hour from the administration, each mouse was placed in a 300-ml glass chamber, and a gas mixture consisting of 4% of oxygen and 96% of nitrogen was passed through the chamber at a rate of 5 liters/min. A time from the start of gas passing to the death of each mouse was measured.
To a control mice group was orally administered only physiological saline.
The antihypoxic activity of the test compound was calculated from the following formula: [formula]

Going from OC(COCCN1CCCCC1)c1cccc(Cl)c1 (centres unmarked) [compound 36] to OC(COCCN1CCCCC1)c1ccc2ccccc2c1 (centres unmarked) [compound 238], the response vs control in vivo at 100 mg/kg falls from 139% to 123%.

First: CN(C)CCOCC(O)c1ccc(OCc2ccc(Cl)cc2)cc1 (centres unmarked) [compound 49]
Second: COC(COCCN(C)C)c1ccc(OCc2ccccc2)cc1 (centres unmarked) [compound 213]
The response vs control in vivo at 100 mg/kg of the first is higher: 151% for the first, 149% for the second.

First: CN(C)CCOCC(O)c1ccc(-c2ccccc2)cc1 (centres unmarked) [compound 56]
Second: CN(C)CCOCC(O)c1ccc(F)c2ccccc12 (centres unmarked) [compound 231]
The response vs control in vivo at 100 mg/kg of the first is lower: 182% for the first, 246% for the second.

Compared with Cc1cccc(C(O)COCC2CNCCO2)c1 (centres unmarked) [compound 152], OC(COCC1CNCCO1)c1cccc(Cl)c1 (centres unmarked) [compound 153] is higher in response vs control in vivo at 100 mg/kg: 180% for the first, 185% for the second.

First: OC(COCCN1CCN(C(c2ccccc2)c2ccccc2)CC1)c1ccccc1 (centres unmarked) [compound 167]
Second: Cn1cncc1COCC(O)c1ccc(OCc2ccccc2)cc1 (centres unmarked) [compound 215, 1-(4-Benzyloxyphenyl)-2-[(1-methylimidazol-5-yl)-methoxy]ethanol]
The response vs control in vivo at 100 mg/kg of the first is lower: 165% for the first, 197% for the second.

Going from CC(=O)N(C)CCOCC(O)c1ccccc1 (centres unmarked) [compound 181] to Cc1ccc(C(O)COCCN(C)C)c2ccccc12 (centres unmarked) [compound 232], the response vs control in vivo at 100 mg/kg rises from 132% to 150%.

In the case of CCN(CC)CCOCC(O)c1cccc2ccccc12 (centres unmarked) [compound 243], the response vs control in vivo at 100 mg/kg was 159%.

same assay, conditions: po, 0.5 h, 100 mg/kg orally, placed in chamber (4% oxygen, 96% nitrogen) after 30 minutes from the administration (values marked *), survival time relative to control, read-out: Antihypoxic activity (%)

First: Cc1ccccc1C(O)COCCN(C)C (centres unmarked) [compound 14]
Second: Cc1cccc([C@@H](O)COCCN(C)C)c1 [compound 104]
The response vs control in vivo at 100 mg/kg of the first is higher: 184% for the first, 160% for the second.

First: CN(C)CCOCC(O)c1ccc(C(C)(C)C)cc1 (centres unmarked) [compound 19]
Second: CN(C)CCOCC(O)c1ccc2[nH]ccc2c1 (centres unmarked) [compound 365]
The response vs control in vivo at 100 mg/kg of the first is higher: 168% for the first, 155% for the second.

First: Cc1cccc(C(O)COCCCCN(C)C)c1 (centres unmarked) [compound 23]
Second: CC(=O)OC(COCCN(C)C)c1cccc(C)c1 (centres unmarked) [compound 180]
The response vs control in vivo at 100 mg/kg of the first is higher: 241% for the first, 176% for the second.

Compared with Cc1cc(C)cc(C(O)COCCN(C)C)c1 (centres unmarked) [compound 27], CN(C)CCOCC(O)c1ccc2c(c1)CCC2 (centres unmarked) [compound 252] is lower in response vs control in vivo at 100 mg/kg: 201% for the first, 190% for the second.

Going from CN(C)CCOCC(O)c1ccc(OCc2ccccn2)cc1 (centres unmarked) [compound 84] to CN(CCOCC(O)c1ccc(OCc2ccccc2)cc1)C1CC1 (centres unmarked) [compound 203], the response vs control in vivo at 100 mg/kg rises from 175% to 177%.

Compared with CN(C)CCOCC(O)c1c(Cl)cccc1Cl (centres unmarked) [compound 96], CN(C)CCOCC(O)c1cccc2ccsc12 (centres unmarked) [compound 320] is higher in response vs control in vivo at 100 mg/kg: 176% for the first, 212% for the second.

Compared with COc1cc(C(O)COCCN(C)C)ccc1OCc1ccccc1 (centres unmarked) [compound 98], OC(COCCNC1CC1)c1ccc(OCc2ccccc2)cc1 (centres unmarked) [compound 204] is higher in response vs control in vivo at 100 mg/kg: 164% for the first, 176% for the second.

Compared with OC(COCCN1CCOCC1)c1ccc(OCc2ccccc2)cc1 (centres unmarked) [compound 100], CN1CCN(CCOCC(O)c2ccc(OCc3ccccc3)cc2)CC1 (centres unmarked) [compound 195] is higher in response vs control in vivo at 100 mg/kg: 171% for the first, 176% for the second.

Compared with NCCOCC(O)c1ccccc1 (centres unmarked) [compound 102], CC(C)(C)NCCOCC(O)c1ccccc1 (centres unmarked) [compound 211] is higher in response vs control in vivo at 100 mg/kg: 140% for the first, 177% for the second.

Going from OC(COCc1cccnc1)c1ccc(OCc2ccccc2)cc1 (centres unmarked) [compound 121] to OC(COCc1c[nH]cn1)c1ccc(OCc2ccccc2)cc1 (centres unmarked) [compound 137], the response vs control in vivo at 100 mg/kg rises from 149% to 163%.

First: OC(COCc1ccccn1)c1ccccc1 (centres unmarked) [compound 122]
Second: O[C@H](COCc1cccnc1)c1ccccc1 [compound 129]
The response vs control in vivo at 100 mg/kg of the first is lower: 142% for the first, 158% for the second.

Compared with OC(COCc1ccncc1)c1ccccc1 (centres unmarked) [compound 123], OC(COCc1cccnc1)c1ccc2ccccc2c1 (centres unmarked) [compound 272] is higher in response vs control in vivo at 100 mg/kg: 140% for the first, 185% for the second.

Going from Cc1cccc(C(O)COCc2cccnc2)c1 (centres unmarked) [compound 125] to COc1ccc(C(O)COCc2cccnc2)cc1 (centres unmarked) [compound 131], the response vs control in vivo at 100 mg/kg falls from 172% to 167%.

First: O[C@@H](COCC1CNCCS1)c1ccccc1 (some centres unmarked) [compound 134]
Second: O[C@H](COC[C@@H]1CNCCO1)c1ccccc1 [compound 218, (1S,2'S)-1-phenyl-2-[(morpholin-2-yl)methoxy]ethanol oxalate]
The response vs control in vivo at 100 mg/kg of the first is higher: 201% for the first, 157% for the second.

Compared with OC(COCc1cccnc1)c1cccc(Oc2ccccc2)c1 (centres unmarked) [compound 139], OC(COCc1cccnc1)c1ccc2occc2c1 (centres unmarked) [compound 339, 1-(benzo[b]furan-5-yl)-2-(pyridin-3-yl-methxoy)ethanol] is lower in response vs control in vivo at 100 mg/kg: 162% for the first, 131% for the second.

First: CC(=O)OC(COCCN(C)C)c1ccc(-c2ccccc2)cc1 (centres unmarked) [compound 187]
Second: CC(=O)OC(COCc1cccnc1)c1ccccc1 (centres unmarked) [compound 188]
The response vs control in vivo at 100 mg/kg of the first is higher: 153% for the first, 144% for the second.

First: Cc1cccc(C(O)COCCNC2CC2)c1 (centres unmarked) [compound 208]
Second: OC(COCCNC1CC1)c1ccc2sccc2c1 (centres unmarked) [compound 348]
The response vs control in vivo at 100 mg/kg of the first is lower: 242% for the first, 251% for the second.

First: CC(CN(C)C)OCC(O)c1cccc2ccccc12 (centres unmarked) [compound 250]
Second: CN1CCC=C(COCC(O)c2cccc3ccccc23)C1 (centres unmarked) [compound 271]
The response vs control in vivo at 100 mg/kg of the first is lower: 145% for the first, 150% for the second.

First: OC(COCCN1CCCCC1)c1ccc2sccc2c1 (centres unmarked) [compound 330]
Second: OC(COCCCN1CCCCC1)c1ccc2sccc2c1 (centres unmarked) [compound 387]
The response vs control in vivo at 100 mg/kg of the first is higher: 242% for the first, 228% for the second.

Going from CN(C)CCOCC(O)c1ccc2c(c1)CCS2 (centres unmarked) [compound 332] to NCCOCC(O)c1ccc2sccc2c1 (centres unmarked) [compound 357, 1-(benzo[b]thiophen-5-yl)-2-(2-aminoethoxy)ethanol 1/2 fumarate], the response vs control in vivo at 100 mg/kg falls from 230% to 189%.

Compared with CC(COCC(O)c1ccc2sccc2c1)N(C)C (centres unmarked) [compound 338], OC(COCc1c[nH]cn1)c1ccc2sccc2c1 (centres unmarked) [compound 358, 1-(benzo[b]thiophen-5-yl)-2-[(imidazolyl)methoxy]ethanol] is higher in response vs control in vivo at 100 mg/kg: 144% for the first, 211% for the second.

First: OC(COCc1cccnc1)c1ccc2sccc2c1 (centres unmarked) [compound 340]
Second: CN1CCC=C(COCC(O)c2ccc3sccc3c2)C1 (centres unmarked) [compound 345]
The response vs control in vivo at 100 mg/kg of the first is lower: 163% for the first, 185% for the second.

First: OC(COCC1CNCCO1)c1ccc2sccc2c1 (centres unmarked) [compound 343]
Second: CN1CCCC(COCC(O)c2ccc3sccc3c2)C1 (centres unmarked) [compound 344]
The response vs control in vivo at 100 mg/kg of the first is lower: 160% for the first, 268% for the second.

Going from CN1CCN(CCOCC(O)c2ccc3sccc3c2)CC1 (centres unmarked) [compound 349] to OC(COCCCNC1CC1)c1ccc2sccc2c1 (centres unmarked) [compound 383], the response vs control in vivo at 100 mg/kg rises from 209% to 293%.

Going from OC(COCCNC12CC3CC(CC(C3)C1)C2)c1ccc2sccc2c1 (centres unmarked) [compound 353] to OC(COCCN1CCN(Cc2ccccc2)CC1)c1ccc2occc2c1 (centres unmarked) [compound 394, dihydrochloride], the response vs control in vivo at 100 mg/kg rises from 132% to 241%.

same assay, conditions: po, 0.5 h, read-out: Antihypoxic activity (%)

Compared with CN1CCN(CCOCC(O)c2cccc3ccccc23)CC1 (centres unmarked) [compound 259, 2-[2-(4-methylpiperazin-1-yl)ethoxy]-1-(1-naphthyl)ethanol dihydrochloride], CN(C)CCOCC(O)c1cccc2cccc([N+](=O)[O-])c12 (centres unmarked) [compound 289, 2-[2-(N,N-dimethylamino)ethoxy]-1-(8-nitro-1-naphthyl)ethanol oxalate] is higher in response vs control in vivo at 100 mg/kg: 155% for the first, 157% for the second.

Compared with CNCCOCC(O)c1ccc2sccc2c1 (centres unmarked) [compound 347, 1-(benzo[b]thiophen-5-yl)-2-(N-methylaminoethoxy)ethanol hydrochloride], CCN(CC)CCOCC(O)c1ccc2sccc2c1 (centres unmarked) [compound 388, 2-[2-(N,N-diethylamino)ethoxy]-1-(benzo[b]thiophen-5-yl)ethanol hydrochloride] is higher in response vs control in vivo at 100 mg/kg: 162% for the first, 213% for the second.

same assay, conditions: po, 1 h, read-out: Antihypoxic activity (%)

In the case of CNCCOCC(O)c1cccc2ccccc12 (centres unmarked) [compound 261, 2-[2-(N-methylamino)ethoxy]-1-(1-naphthyl)ethanol hydrochloride], the response vs control in vivo at 100 mg/kg was 126%.

tested on: ddY male mice; assay: Acute toxicity; format: in vivo, mouse; conditions: 50 mg/kg intravenously, group of 3 ddY male mice
Description: A test compound dissolved in physiological saline was intravenously administered to a group of 3 ddY male mice (5-6 weeks old) to examine the acute toxicity of the test compound.

For CN(C)CCOCC(O)c1ccc(O)cc1.Cl (centres unmarked) [Compound No. 170, 1-(4-hydroxyphenyl)-2-[2-(N,N-dimethylamino)ethoxy]ethanol hydrochloride], the Acute toxicity was “no death case”.
For OC(COCCN1CCOCC1)c1ccccc1 (centres unmarked) [compound 8], the Acute toxicity was “no death case”.
With Cc1cccc(C(O)COCCN2CCCC2=O)c1 (centres unmarked) [compound 25] the Acute toxicity was “no death case”.
With COc1ccc(C(O)COCCN(C)C)cc1 (centres unmarked) [compound 44] the Acute toxicity was “no death case”.
In the case of CN(C)CCOCC(O)c1ccc2c(c1)OCO2 (centres unmarked) [compound 52], the Acute toxicity was “no death case”.
In the case of CN(C)CCOCC(O)c1cccc(Oc2ccccc2)c1 (centres unmarked) [compound 53], the Acute toxicity was “no death case”.
In the case of OC(COCC1CN(Cc2ccccc2)CCO1)c1ccc(Oc2ccccc2)cc1 (centres unmarked) [compound 147], the Acute toxicity was “no death case”.
OCC1CCCN1CCOCC(O)c1ccccc1 (centres unmarked) [compound 159] was tested, and the Acute toxicity was “no death case”.
With CN(CCOCC(O)c1ccccc1)C(=O)C1CCC(=O)N1 (centres unmarked) [compound 160] the Acute toxicity was “no death case”.
